Patent US20070213402A1, “Compounds which interact with the thyroid hormone receptor for the treatment of fibrotic disease” (priority 1998, published 2007)

Tests used:
[1] = system: collagenase I promoter; assay: Experiment 1: collagenase I promoter (-73/+63)-luciferase in CV1 cells, no receptor plasmid (Empty); type: cell-based, African Green Monkey; conditions: no receptor, substance added alone
Text: (§1) Two plasmid constructs were introduced by standard calcium phosphate precipitation of DNA followed by glycerol shock (Ausubel F M, Brent R, Kingston D D, Moore J G et al Current protocols in molecular biology 1994 Greene Publishing Associates/Wiley-Interscience, New York, N.Y.) using a transformed African Green Monkey kidney cell line (CV1) (Schneikert J, Peterziel H, Defossez P-A, Klocker H, de Launoit Y and Cato A C B Androgen receptor-Ets protein interaction is a novel mechanism for steroid hormone-mediated down-modulation of matrix metalloproteinase expression, Journal of Biological Chemistry. Vol 271(39) (pp 23907-23913), 1996).
(§2) Accordingly, the following two plasmids were included into CV1 cells described above — • (a) Either of GR1 or pSG5ARF containing glucocorticoid or androgen receptor (AR) respectively, both at 2 ug per 5×10^5 cells, driven by the Rous sarcoma virus promoter, and • (b) a plasmid containing the −73/+63 portion of the collagenase I promoter linked to luciferase gene at 8 ug per 5×10^5 cells.
(§3) CPII was compound II above, clobuzarit.

[2] = system: collagenase I promoter; assay: Experiment 1: collagenase I promoter (-73/+63)-luciferase in CV1 cells transfected with GR1 (glucocorticoid receptor); type: cell-based, African Green Monkey; conditions: for % control (GR1): Blank = 100
Text: as §1, §2, §3

[3] = system: collagenase I promoter; assay: Experiment 1: collagenase I promoter (-73/+63)-luciferase in CV1 cells transfected with pSG5ARF (androgen receptor); type: cell-based, African Green Monkey; conditions: for % control (AR): Blank = 100
Text: as §1, §2, §3

[4] = system: collagenase (MMP-1) promoter; assay: Experiment 4.1: collagenase (MMP-1) promoter (-517/+63)-luciferase in MCF-7 cells, endogenous thyroid hormone receptors; type: cell-based, human; conditions: MCF-7, endogenous thyroid hormone receptors, substance added alone
Method: (§4) These experiments were intended to identify the receptor through which compounds I might be acting to block collagenase promoter activity.
(§5) Transfection procedure hereinbefore described with CV1 cells was repeated using MCF-7 mammary breast cancer cells derived from pleural effusion from a breast cancer patient. Additionally, each experiment included transfection of a plasmid (at 8 ug per 5×10^5 cells) containing the −517/+63 section of the collagenase (MMP-1) promoter linked to the luciferase gene. TPA was used as above to stimulate activity of the collagenase promoter resulting in luciferase production. Compound II or 3,3,5-triiodo-L-thyronine (T3) was included (both at 10^−8M), the latter being a known ligand for the thyroid hormone receptor.
Experiment 4.1. As MCF-7 cells express endogenous thyroid hormone receptors, only the collagenase promoter plasmid (at 8 ug per 5×10^5 cells) was transfected into the MCF-7 cells.

[5] = system: collagenase (MMP-1) promoter; assay: Experiment 4.2: collagenase (MMP-1) promoter-luciferase in MCF-7 cells with antisense construct for the thyroid receptor; type: cell-based, human; conditions: MCF-7 + thyroid receptor antisense, substance added alone
Method: as §4, §5
Experiment 4.2. The procedure of Experiment 4.1 was repeated except that a second plasmid, containing 662 bp antisense construct for the thyroid receptor (at 8 ug per 5×10^5 cells) was additionally transfected.

[6] = system: collagenase (MMP-1) promoter; assay: Experiment 4.3: collagenase (MMP-1) promoter-luciferase in MCF-7 cells with transfected chick thyroid hormone receptor; type: cell-based, human; conditions: MCF-7 + chick thyroid hormone receptor, substance added alone
Method: as §4, §5

[7] = system: NFκB; assay: Experiment 3: NFκB-driven 3-EnhTK-Luc reporter in CV1 cells with GR1; type: cell-based, African Green Monkey
Text: as §1
This experiment was intended to show the effect of compounds I on a mediator of the immune response, nuclear factor—κB (NF-κB).
The following two plasmids were included into CV1 cells described above— • (a) GR1 as described above at 2 ug per 5×10^5 cells, and • (b) a plasmid designated 3-EnhTK-Luc (at 0.5 ug per 5×10^5 cells) which contains a transcription site that is activated by NFκB.
The blank represented the inclusion of these two plasmids alone; the relatively high value was caused by (i) the high level of serum in the culture, and (ii) the associated stress that the cells underwent during the […]—both of which upregulate NFκB. There was also a related relatively low activation of TNF (at 4 ng/ml) above a serum containing blank in the experiment. TNF was tumour necrosis factor alpha.

[8] = substance added alone, TPA 75 ng/ml
[9] = substance added with TPA 75 ng/ml, Dex 10^-7M
[10] = substance added with TPA 75 ng/ml, DHT 10^-7M

## CCCCCCCCCCCCCC(=O)O[C@@H]1[C@@H](C)[C@@]2(O)[C@@H](C=C(CO)C[C@]3(O)C(=O)C(C)=C[C@@H]23)[C@@H]2C(C)(C)[C@]12OC(C)=O [TPA, 12-O—tetradecanoylphorbol-13-acetate, reference compound]
[1]; luciferase, TPA 75 ng/ml
  Raw counts (Empty): 5407 counts
[1]; Blank = 100
  % control (Empty): 225%
[2]; substance added alone
  % control (GR1): 448%
[2]; [8]
  Raw counts (GR1): 57519 counts
[3]; substance added alone
  % control (AR): 436%
[3]; [8]
  Raw counts (AR): 11639 counts
[4]; Blank = 100
  % Control: 1174.3%
[4]; CPII 10^-8M
  Raw Counts: 147665 counts
[5]; Blank = 100
  % Control: 341.2%
[5]; CPII 10^-8M
  Raw Counts: 4975 counts
[6]; Blank = 100
  % Control: 528%
[6]; CPII 10^-8M
  Raw Counts: 11528 counts

## C[C@@H]1C[C@H]2[C@@H]3CCC4=CC(=O)C=C[C@]4(C)[C@@]3(F)[C@@H](O)C[C@]2(C)[C@@]1(O)C(=O)CO [Dex, dexamethazone, reference compound]
[2]; [9]
  Raw counts (GR1): 10981 counts
  % control (GR1): 86%
[2]; TPA-stimulated, glucocorticoid receptor
  collagenase I activation, in words (GR1): able to down regulate this activation
[7]; substance added with TNF 4 ng/ml
  Raw Counts: 18525 counts
[7]; substance added with TNF 4 ng/ml, Blank = 100
  % Control: 31%
[7]; with TNF
  inhibitory effect on NFκB transcription, in words: marked effect

## C[C@]12CCC(=O)C[C@@H]1CC[C@@H]1[C@@H]2CC[C@]2(C)[C@@H](O)CC[C@@H]12 [DHT, dihydroxytestosterone, reference compound]
[3]; [10]
  Raw counts (AR): 3711 counts
  % control (AR): 139%
[3]; TPA-stimulated, androgen receptor
  collagenase I activation, in words (AR): able to down regulate this activation
